Data published in patent US20250057808A1, “COMPOSITION COMPRISING BETA LACTAM FOR TREATING ALCOHOL DEPENDENCE AND ALCOHOL ASSOCIATED DISEASES OR CONDITIONS” (Temple University of the Commonwealth System of Higher …, priority 2023, published 2025).
“Also recorded” adds a separate entry of the source.

Columns and labels:
[1] = tested on: PPAR-α; assay: Western blot PPAR-α expression in NAc-core, NAc-shell and liver; format: in vivo, P rats; settings: MC-100093 50 mg/kg or ceftriaxone 200 mg/kg i.p. 5 days; among all groups
Experimental: We used micro-punch procedure to dissect the subregions of the NAc such as NAc-core and NAc-shell as well as the subregions of prefrontal cortex such as infralimbic (IL) and prelimbic (PL) from the brain on day 6 after the last injection day. P rats were removed from the cage and rapidly euthanized by CO2 inhalation followed by rapid decapitation with a guillotine. Brains were isolated and immediately frozen on dry ice and stored at −80° C. The stereotaxic coordinates provided by Paxinos and colleague's rat brain stereotactic atlas was used to isolate NAc-core and NAc-shell using a cryostat apparatus (−20° C.), which then kept at −80° C. for later western blot analyses.
Western Blot assay was performed to measure changes in the expression of GLT-1, xCT, mGluR1, mGluR5, PPAR-α, PPARγ, GAPDH and β-tubulin in the NAc-core and NAc-shell as described in previous publications. A lysis buffer containing protease and phosphatase inhibitors was used to generate a homogenate of liver, Nac-core, and Nac-shell samples. The amount of protein was quantified using a detergent compatible protein assay (Bio-Rad, Hercules, CA, USA) for each sample. Samples were mixed with laemmli dye and loaded with equal amounts on polyacrylamide gels (10%), which separated the proteins using electrophoresis. After that, polyvinylidene difluoride (PVDF) membranes were used to transfer the proteins electrophoretically from the gels. Membranes were incubated in 5% free-fat milk in Tris-buffered saline with Tween-20 (TBST) for 30-60 minutes at room temperature. Membranes were then incubated with appropriate primary antibodies overnight at 4° C.: rabbit anti-GLT-1 (1:5000, Abcam, ab41621), rabbit anti-xCT (1:2000, Abcam, ab175186), rabbit anti-mGluR1 (1:1000, Abcam, ab82211), rabbit anti-mGluR5 (1:1000, Abcam, ab76316), rabbit anti-PPAR-α (1:1000, Abcam, ab24509), and rabbit anti-PPARγ (1:1000, Abcam, ab209350). Mouse anti-β-tubulin (1:1000; BioLegend) was used as a loading control antibody for the brain samples and rabbit anti-GAPDH (1:5000; cell signaling) was used as a loading control antibody for the liver samples. Membranes were washed five times on the next day with TBST followed by incubation with appropriate secondary antibody (1:5000) for 90 minutes at room temperature. Chemiluminescent reagents (Super Signal West Pico, Pierce Inc.) were used to detect the proteins using a GeneSys imaging system to develop the digitized blot images. Water-control group data were represented as 100% and all other values were expressed relative to control group to detect changes in the expression of the protein of interest in the brain and liver samples.
All statistical analyses were conducted with Graphpad Prism software, with p-values of 0.05 or less being statistically significant. […]

[2] = Ethanol intake, preference, water intake and body weight in male and female P rats (section B); format: in vivo, Male and female alcohol-preferring (P) rats; settings: for Body weight / Ethanol consumption: 100 mg/kg; for Ethanol consumption / Ethanol preference / Water consumption: vs ethanol-saline group; for Ethanol preference / Water consumption: 100 mg/kg i.p.; for Ethanol preference: Day 1 through Day 5
Experimental: Male and female alcohol-preferring (P) rats were acquired from Indiana University School of Medicine, Indianapolis, IN at the age of 80-85 days. All animals were single housed in a room with temperature at 22° C. and 50% humidity in a 12 h light/dark cycle. Rats had free access to food and water throughout the experimental procedures. All the experimental procedures were approved by the University of Toledo Institutional Animal Care and Use Committee (IACUC) under IACUC protocol #400160.
At the age of 90-100 days, 5-7 male and female rats were assigned randomly to three groups: (1) Water-drinking (Water-Saline) group with no access to ethanol and served as a control group; (2) Ethanol-Saline group, which was exposed to continuous free-choice access to ethanol (15% and 30%, v/v, concurrently), and water for five weeks, and saline i.p. injections were performed from Days 1-5 on Week 6; and (3) Ethanol-MC-100093 group, which had continuous free-choice access to ethanol (15% and 30%, v/v), and water for five weeks, and MC-100093 i.p. injections were performed from Days 1-5 on Week 6. Ethanol and water intake were measured as g/kg/day. Rats were required to meet the criterion of an average ethanol consumption of 4 g/kg/day to be included in the study, for at least 2 weeks before saline vehicle or MC-100093 i.p. injections, as adopted in previous studies. Average ethanol and water consumptions throughout Week 5 served as a baseline. At Week 6 of the experiment, ethanol-MC-100093 group received MC-100093 at a dose of 100 mg/kg (i.p.) once daily for five days, and ethanol-saline and water-saline groups received saline vehicle as an i.p injection for five consecutive days. Water and ethanol were measured daily 24 hours after the first i.p. injections of saline or MC-100093 and 24 hours after the last i.p. injections of saline or MC-100093.
All statistical analyses were conducted using GraphPad Prism (10). Two-way (mixed) ANOVA followed by Bonferroni multiple comparison post-hoc test was performed to analyze daily ethanol intake, average daily water intake and body weight. One-way ANOVA followed by Newman-Keuls post hoc tests were used to analyze Western blot data. All statistical analyses data were reported as a p<0.05 of significance.
Ethanol preference was calculated as total ethanol consumption/total fluid consumption×100 from daily alcohol and water consumption.

[3] = tested on: gram-positive and gram-negative bacteria; settings: cited from earlier work
[4] = human liver microsomes in vitro; cited from earlier work
[5] = female P rats, 100 mg/kg i.p. 5 days
[6] = male P rats, 100 mg/kg i.p. 5 days

Structure (SMILES): C[C@@H](O)[C@H]1C(=O)N[C@@H]1[C@@H](C)C(=O)N1CCN(C)CC1 [MC-100093]
- Protein expression of PPAR-α in the NAc-core [1]: non-significant differences; also recorded: did not detect significant changes
- Protein expression of PPAR-α in the NAc-shell [1]: non-significant differences; also recorded: did not detect significant changes
- Attenuation effect on ethanol consumption, male compared with female P rats ([2]; 100 mg/kg i.p. 5 days): higher attenuation effect on ethanol consumption in male P rats exceeding female P rats
- Body weight [2, 5]: no significant effect on body weights; also recorded: no effect on the body weight
- Ethanol consumption [2, 5]: reduced ethanol consumption in both male and female P rats from Day 1-5; also recorded: significant decrease in ethanol consumption from Day 1 through Day 5; also recorded: decreased ethanol consumption in male and female P rats
- Ethanol preference ([2]; female P rats): significant decrease in percent ethanol preference
- Water consumption ([2]; female P rats): significant increase in water consumption from Day 1 through Day 5
- Body weight [2, 6]: no significant effect on body weights; also recorded: no effect on the body weight
- Ethanol consumption [2, 6]: reduced ethanol consumption in both male and female P rats from Day 1-5; also recorded: significant decrease in ethanol consumption from Day 1 through Day 5; also recorded: decreased ethanol consumption in male and female P rats
- Ethanol preference ([2]; male P rats): significant decrease in percent ethanol preference
- Water consumption ([2]; male P rats): significant increase in water consumption from treatment Day 1 through Day 5
- Antimicrobial / antibiotic activity [3]: without any antibiotic action; also recorded: no antibiotic activity; also recorded: no antibiotic actions; also recorded: lacking the antibacterial properties; also recorded: lacks antimicrobial activity; also recorded: does not have any antibiotic action
- Stability in liver microsomes [4]: high stability
